Measurements taken from ChEMBL document CHEMBL4342465, “Lead Optimization and Avoidance of Reactive Metabolite Leading to PCO371, a Potent, Selective, and Orally Available Human Parathyroid Hormone Receptor 1 (hPTHR1) Agonist” (J Med Chem, 2020).
Blank lines part the entries; values can stand above or below the compound they belong to. Calls of active or inactive are those of the source. No cut-off for these calls is given here.

Key:
[1] = system: Rattus norvegicus; experiment: Anti-hypoparathyroidism activity in po dosed TPTX Crl:CD(SD) rat assessed as increase in serum calcium level measured up to 24 hrs by o-CPC method; type: functional, organism-based
[2] = Drug metabolism in human liver microsomes assessed as compound 17 formation at 1 uM measured after 30 mins in presence of NADPH by LC-MS/MS analysis; type: ADME, Microsome; conditions: 0.5 h
[3] = system: Rattus norvegicus; experiment: Anti-hypoparathyroidism activity in po dosed TPTX Crl:CD(SD) rat assessed as decrease in serum phosphate level measured up to 24 hrs by xanthine oxidase based method; type: functional, organism-based
[4] = Clearance in human liver microsomes at 1 uM measured after 30 mins in presence of NADPH by LC-MS/MS analysis; type: ADME, Microsome; conditions: read-out: CLH
[5] = system: Rattus norvegicus; experiment: Anti-hypoparathyroidism activity in po dosed TPTX Crl:CD(SD) rat assessed as time required to show maximum increase in serum calcium level by o-CPC method; type: functional
[6] = Volume of distribution at steady state in rat at 2 mg/kg, iv by LC-MS/MS analysis; type: ADME, organism-based; conditions: in vivo, read-out: Vdss
[7] = molecular target: T1, Parathyroid hormone/parathyroid hormone-related peptide receptor (Homo sapiens) (UniProt Q03431); conditions: LLC-PK1
T1 sequence (whole entry): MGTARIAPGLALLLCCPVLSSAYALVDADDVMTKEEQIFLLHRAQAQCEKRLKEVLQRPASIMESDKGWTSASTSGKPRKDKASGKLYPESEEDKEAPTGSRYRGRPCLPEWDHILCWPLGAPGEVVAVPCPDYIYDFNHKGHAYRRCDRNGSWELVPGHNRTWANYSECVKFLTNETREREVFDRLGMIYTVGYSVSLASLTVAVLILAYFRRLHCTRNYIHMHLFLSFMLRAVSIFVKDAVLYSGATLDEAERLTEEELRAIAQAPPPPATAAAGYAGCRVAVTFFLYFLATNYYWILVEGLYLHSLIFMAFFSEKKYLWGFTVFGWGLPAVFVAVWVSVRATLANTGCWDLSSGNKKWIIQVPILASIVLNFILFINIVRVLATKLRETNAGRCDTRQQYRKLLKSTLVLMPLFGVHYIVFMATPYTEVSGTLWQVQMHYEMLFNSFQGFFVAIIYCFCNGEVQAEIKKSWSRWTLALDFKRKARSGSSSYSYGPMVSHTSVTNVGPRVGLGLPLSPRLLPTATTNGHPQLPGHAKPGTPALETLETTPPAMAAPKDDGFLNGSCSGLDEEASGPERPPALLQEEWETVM

[8] = system: Rattus norvegicus; experiment: Anti-hypoparathyroidism activity in po dosed TPTX Crl:CD(SD) rat assessed as increase in serum calcium level by measuring serum calcium level at 30 mg/kg, po administered as single dose measured after 24 hrs by o-CPC method; type: functional
[9] = system: Rattus norvegicus; experiment: Anti-hypoparathyroidism activity in po dosed TPTX Crl:CD(SD) rat assessed as time required to show minimum decrease in serum phosphate level by xanthine oxidase based method; type: functional
[10] = Half life in rat at 2 mg/kg, iv by LC-MS/MS analysis; type: ADME, organism-based; conditions: in vivo
[11] = Clearance in rat at 2 mg/kg, iv by LC-MS/MS analysis; type: ADME, organism-based; conditions: in vivo
[12] = AUC (infinity) in rat at 2 mg/kg, iv by LC-MS/MS analysis; type: ADME, organism-based; parameters: dose 2 mg/kg, route intravenous, time infinity; conditions: in vivo
[13] = molecular target: T2, Parathyroid hormone/parathyroid hormone-related peptide receptor (Homo sapiens, UniProt Q03431); experiment: Agonist activity at recombinant human PTHR1 expressed in pig LLC-PK1 cells assessed as increase in cAMP production measured after 20 mins by EIA; type: functional, cell-based
T2 sequence (Q03431 whole entry): T1 sequence (whole entry)

[14] = Drug metabolism in human liver microsomes assessed as hydrolysis by measuring compound 19 formation at 1 uM measured after 30 mins in presence of NADPH by LC-MS/MS analysis; type: ADME, Microsome; conditions: 0.5 h
[15] = Drug metabolism in human liver microsomes assessed as oxidation by measuring compound 18 formation at 1 uM measured after 30 mins in presence of NADPH by LC-MS/MS analysis; type: ADME, Microsome; conditions: 0.5 h
[16] = system: Rattus norvegicus; experiment: Anti-hypoparathyroidism activity in sc dosed TPTX Crl:CD(SD) rat assessed as increase in serum calcium level measured up to 24 hrs by o-CPC method; type: functional, organism-based

SMILES: Cc1cc(N2C(=O)NC(=O)C2(C)C)cc(C)c1CCS(=O)(=O)N1CCC2(CC1)N=C(c1ccc(OC(F)(F)F)cc1)NC2=O [PCO-371]
- microsomal CLint at 1 µM [4]: 30 µL/min/mg
- Time [5]: 10 h
- Activity [1]: Dose-dependent effect
- Vd [6]: 3.04 L/kg
- EC20 [7]: 1.1 µM
- Activity [8]: 8.8 to 10.4 mg/dL
- Time [9]: 10 h
- Activity [3]: Dose-dependent effect
- half-life [10]: 1.3 h
- clearance [11]: 30.5 mL/min/kg
- AUC(0-inf) [12]: 1100 ng·h/mL

SMILES: Cc1cc(N2CC(=O)NC2=O)cc(C)c1CCS(=O)(=O)N1CCC2(CC1)N=C(c1ccc(OC(F)(F)F)cc1)NC2=O
- EC50 [13]: > 100 µM
- EC20 [7]: > 100 µM

SMILES: Cc1cc(N2C(=O)N(C)C(=O)C2(C)C)cc(C)c1CCS(=O)(=O)N1CCC2(CC1)N=C(c1ccc(OC(F)(F)F)cc1)NC2=O
- microsomal CLint at 1 µM [4]: 330 µL/min/mg

SMILES: Cc1cc(N(C)C(N)=O)cc(C)c1CCS(=O)(=O)N1CCC2(CC1)N=C(c1ccc(OC(F)(F)F)cc1)NC2=O
- microsomal CLint at 1 µM [4]: 48 µL/min/mg

SMILES: CCC1(CC)C(=O)NC(=O)N1c1cc(C)c(CCS(=O)(=O)N2CCC3(CC2)N=C(c2ccc(OC(F)(F)F)cc2)NC3=O)c(C)c1
- EC50 [13]: > 100 µM
- microsomal CLint at 1 µM [4]: 29 µL/min/mg
- EC20 [7]: 7.4 µM

SMILES: Cc1cc(N2C(=O)NC(=O)C23CCCC3)cc(C)c1CCS(=O)(=O)N1CCC2(CC1)N=C(c1ccc(OC(F)(F)F)cc1)NC2=O
- microsomal CLint at 1 µM [4]: 35 µL/min/mg

SMILES: Cc1cc(N2C(=O)CNC2=O)cc(C)c1CCS(=O)(=O)N1CCC2(CC1)N=C(c1ccc(OC(F)(F)F)cc1)NC2=O
- microsomal CLint at 1 µM [4]: 110 µL/min/mg

SMILES: Cc1cc(N2C(=O)NC(=O)C2C)cc(C)c1CCS(=O)(=O)N1CCC2(CC1)N=C(c1ccc(OC(F)(F)F)cc1)NC2=O (centres undefined)
- microsomal CLint at 1 µM [4]: 71 µL/min/mg

SMILES: CC[C@H](C)[C@H](NC(=O)[C@H](CCC(=O)O)NC(=O)[C@H](CO)NC(=O)[C@@H](NC(=O)[C@@H](N)CO)C(C)C)C(=O)N[C@@H](CCC(N)=O)C(=O)N[C@@H](CC(C)C)C(=O)N[C@@H](CCSC)C(=O)NC(Cc1cnc[nH]1)C(=O)N[C@@H](CC(N)=O)C(=O)N[C@@H](CC(C)C)C(=O)NCC(=O)N[C@@H](CCCCN)C(=O)N[C@@H](Cc1cnc[nH]1)C(=O)N[C@@H](CC(C)C)C(=O)N[C@@H](CC(N)=O)C(=O)N[C@@H](CO)C(=O)NC(CCSC)C(=O)N[C@@H](CCC(=O)O)C(=O)N[C@@H](CCCNC(=N)N)C(=O)N[C@H](C(=O)N[C@@H](CCC(=O)O)C(=O)N[C@@H](Cc1c[nH]c2ccccc12)C(=O)N[C@@H](CC(C)C)C(=O)N[C@@H](CCCNC(=N)N)C(=O)N[C@@H](CCCCN)C(=O)N[C@@H](CCCCN)C(=O)N[C@@H](CC(C)C)C(=O)N[C@@H](CCC(N)=O)C(=O)N[C@@H](CC(=O)O)C(=O)N[C@H](C(=O)N[C@@H](Cc1cnc[nH]1)C(=O)N[C@@H](CC(N)=O)C(=O)N[C@@H](Cc1ccccc1)C(=O)O)C(C)C)C(C)C (some centres undefined)
- EC20 [7]: 0.0006 µM
- Activity [16]: Active

Continued, in another order:

- Drug metabolism [2]: Metabolite_Detected
- Activity [3]: Dose-dependent effect
SMILES: Cc1cc(N(C)C(N)=O)cc(C)c1CCS(=O)(=O)N1CCC2(CC1)N=C([C@H]1CC[C@H](C)CC1)NC2=O
- Activity [1]: Dose-dependent effect

- EC50 [13]: 32 µM
- microsomal CLint at 1 µM [4]: 53 µL/min/mg
- EC20 [7]: 6 µM
SMILES: Cc1cc(N2C(=O)CNC2=O)cc(C)c1CCS(=O)(=O)N1CCC2(CC1)N=C([C@H]1CC[C@H](C)CC1)NC2=O

- Drug metabolism [14]: Metabolite_Detected
SMILES: Cc1cc(N)cc(CO)c1C(O)CS(=O)(=O)N1CCC2(CC1)N=C([C@H]1CC[C@H](C)CC1)NC2=O (some centres undefined)

- EC50 [13]: 33 µM
- microsomal CLint at 1 µM [4]: 170 µL/min/mg
- EC20 [7]: 2.2 µM
SMILES: CC[C@H]1CC[C@H](C2=NC3(CCN(S(=O)(=O)CCc4c(C)cc(N(C)C(N)=O)cc4C)CC3)C(=O)N2)CC1

- Drug metabolism [15]: Metabolite_Detected
SMILES: Cc1cc(N)cc(C)c1CCS(=O)(=O)N1CCC2(CC1)N=C([C@H]1CC[C@H](C)CC1)NC2=O
